# Measurements from patent US8183283B2, “Dendrite elongation inhibitor for melanocyte and skin preparation for external use containing the same” (Pola Chemical Industries Inc., priority 2002, dated 2012).
# System: Normal human melanocyte
# Test: Inhibitory action on the elongation of dendrites using human melanocytes
# Type: cell-based
# Text: According to a method shown below, inhibitory action on the elongation of dendrites was examined using human melanocytes. (Reagent, etc.) Cells, basal media, and amplification additives were purchased from KURABO INDUSTRIES LTD.
# (Cell) Normal human melanocyte
# (Medium) Basal medium (Medium 1545) supplemented with reagents described below
# (Reagent) Amplification additive: bovine pituitary extract (BPE) (final concentration of 0.4% v/v in the medium), fetal bovine serum (FBS) (final concentration of 0.5% v/v in the medium), human recombinant basic fibroblast growth factor (rFGF-B) (final concentration of 3 ng/ml in the medium), hydrocortisone (final concentration of 0.18 μg/ml in the medium), insulin (final concentration 5 μg/ml in the medium), transferrin (final concentration of 5 μg/ml in the medium), phorbol 12-myristate 13-acetate (PMA) (final concentration of 10 ng/ml in the medium), heparin (final concentration of 3 μg/ml in the medium), and PSA solution (mixture solution of penicillin concentration of 50,000 Unit/ml, streptomycin concentration of 50 μg/ml, and amphotericin B concentration of 12.5 μg/ml; 1-ml addition with respect to 500 ml of the medium) (Method) […]
smiles,measurement,setting,value
"COc1ccc(-c2oc3cc(O)c(OC)c(O)c3c(=O)c2OC)cc1O [Centaureidin, 5,7-dihydroxy-3,6-dimethoxy-2-(5-hydroxy-4-methoxyphenyl)-4H-1-benzopyran-4-on]",Inhibition against the elongation of dendrites (in words),"24 hours after addition of the sample solution, versus control",elongation is inhibited
same,Length of dendrite,"sample solution with 100 μg/ml Centaureidin, 50 μl added to 200 μl medium, observed 24 hours after addition, growth factor-supplemented medium",26 ± 8 μm
